Source: patent US20250019520A1, “RELIEF PRECURSORS WITH ENHANCED STABILITY” (XSYS Germany GmbH, priority 2023, published 2025)

Experiments:
Type in all cases: physicochemical
[1] = Kneading trials at 180° C., onset of crosslinking seen as increase in torque; settings: kneading at 180° C. for 60 min, SBS binder plus stabilizer
Procedure: Kneading trials were carried out using a ThermoFisher Scientifc Haake kneading device equipped with a Haake PolyLab OS RheoDrive 7 control unit, a Haake Rheomix 600 OS heating and kneading chamber with Roller Rotors R600. The torque and the sample temperature were recorded using the software PolySoft, version 2.1.0.1. For the measurement, a temperature of 180° C. was applied. The measurement was carried out for 60 min, respectively. The components were added to the kneading device as solids and were allowed to be mixed in the kneading device.
In the given sample, the amount of stabilizer was varied in the range of 0 to 1.0 parts by weight and the excess was counterbalanced by the amount of binder, respectively.
An increase in torque indicated the onset of crosslinking of the SBS-rubber due to insufficient stabilization. Without additional stabilizer, an increase in torque was observed within the first 10 min of measurement time. With BHT as stabilizer, an increase in torque was detected after 28 min of heating at 180° C. With ascorbyl palmitate, the best result was achieved, where crosslinking was observed after 50 min.

[2] = Thermal melt stability: onset time of crosslinking, SIS-rubber based formulation; settings: 160° C.
Procedure: The thermal melt stability was assessed by recording the melt viscosity during heating. Crosslinking of the sample was recorded as an increase in viscosity. Oscillatory rheological measurements were carried out using a Kinexus lab+rheometer (Malvern Instruments Ltd., UK) under isothermal (T=160° C.) conditions. Data was recorded using the corresponding software rSPACE version 1.76 (Malvern Instruments Ltd., UK). As measurement geometry, parallel plates with a diameter of 2.5 cm of the upper plate were chosen. As sample, a disc of a relief precursor with a diameter of 2.5 cm was used. Prior to measurement, any foils (e.g. the cover sheet) and mask layers were removed from the relief precursor. Measurements were carried out in oscillation single frequency mode. The frequency was set to 1 Hz. The gap between the parallel plates was set constant to the respective sample thickness. Data points were recorded every 15 s. The complex shear viscosity η* was monitored over time t. The “onset time of crosslinking” was identified as “the time when the difference quotient Δη*/Δt is ≥1 Pa, with Δt=15 s”. A higher onset time indicates a higher thermal stability and stability towards mechanical stress.
In this example, another trial formulation based on a SIS tri-block copolymer was used. […]

[3] = Thermal melt stability: onset time of crosslinking by oscillatory rheology at 160° C., SBS-rubber based trial formulation; settings: SBS-rubber based plate formulation with 1 wt % carbamate derivative, crude reaction mixture added without purification
Procedure: In the given examples, the amount of stabilizer was varied in the range of 0 to 6.5 parts by weight and the excess was counterbalanced by the amount of binder, respectively. The components were dissolved in a solvent, being toluene (also called methylbenzene) and heated under reflux to obtain a homogeneous solution (concentration in toluene: 45 wt. %).
The solution was then cast on a carrier sheet. The plate thickness was adjusted using a doctor blade with a gap of 3 mm distance to the carrier sheet (PET film with 175 μm thickness).
The solvent was allowed to evaporate at room temperature for 16 hours followed by heating at 65° C. for 4 hours. To allow digital imaging, a mask layer (ML) coated on a cover sheet (CL) was laminated on top of the relief precursor using an Excelam-Q laminator (GMP Deutschland GmbH, Germany). Lamination was carried out at a temperature of the heated roll of 110° C., a velocity of 8.8 mm/s, and at a gap of 1.5 mm. To finish the lamination, the cast plate was sandwiched between two aluminum plates and was kept at 65° C. for 3 h.
The thermal melt stability was assessed by recording the melt viscosity during heating. Crosslinking of the sample was recorded as an increase in viscosity. Oscillatory rheological measurements were carried out using a Kinexus lab+rheometer (Malvern Instruments Ltd., UK) under isothermal (T=160° C.) conditions. Data was recorded using the corresponding software rSPACE version 1.76 (Malvern Instruments Ltd., UK). […] Prior to measurement, any foils (e.g. the cover sheet) and mask layers were removed from the relief precursor. Measurements were carried out in oscillation single frequency mode. The frequency was set to 1 Hz. The gap between the parallel plates was set constant to the respective sample thickness. Data points were recorded every 15 s. The complex shear viscosity η* was monitored over time t. The “onset time of crosslinking” was identified as “the time when the difference quotient Δη*/Δt is ≥1 Pa, with Δt=15 s”. A higher onset time indicates a higher thermal stability and stability towards mechanical stress.
Reaction mixtures were used completely without purification and were simply added to the plate formulation during homogenization in toluene solution. The stoichiometric amount of the reactants was calculated in a way to obtain a concentration of 1 wt % carbamate derivative in the plate formulation, assuming full conversion of the reactants. […] The reaction was quenched with an excess ethanol (same volume as the reaction mixture) and added to the plate formulation in toluene solution. The procedure for production of the plate precursor was followed as mentioned above. The solution was cast on a carrier sheet and traces of THF/ethanol were evaporated together with toluene during the drying step of the plate precursor.

Row | Structure (SMILES) | Onset time t/min [1] [min] | Onset time t (Δη*/Δt ≥ 1 Pa)/min [2] [min] | Onset time t (Δη*/Δt ≥ 1 Pa)/min (OT) [3] [min]
1 | Cc1cc(C(C)(C)C)c(O)c(C(C)(C)C)c1 [BHT, 2,6-di-tert-butyl-4-methylphenol, reference compound] | 28 | 16 | –
2 | CCCCNC(=O)OCC(OC(=O)NCCCC)C1OC(=O)C(O)=C1O (stereo not drawn) [Entry 1, 1-(3,4-dihydroxy-5-oxo-2,5-dihydrofuran-2-yl) ethane-1,2-diyl bis(butylcarbamate)] | – | – | 74
3 | Cc1ccc(S(=O)(=O)NC(=O)OCC(OC(=O)NS(=O)(=O)c2ccc(C)cc2)C2OC(=O)C(O)=C2O)cc1 (stereo not drawn) [Entry 2, 1-(3,4-dihydroxy-5-oxo-2,5-dihydrofuran-2-yl) ethane-1,2-diyl bis(tosylcarbamate)] | – | – | 5
4 | O=C(Nc1ccccc1)OCC(OC(=O)Nc1ccccc1)C1OC(=O)C(O)=C1O (stereo not drawn) [Entry 3, 1-(3,4-dihydroxy-5-oxo-2,5-dihydrofuran-2-yl) ethane-1,2-diyl bis(phenylcarbamate)] | – | – | 51
5 | CCO[Si](CCCNC(=O)OCC(OC(=O)NCCC[Si](OCC)(OCC)OCC)C1OC(=O)C(O)=C1O)(OCC)OCC (stereo not drawn) [Entry 4, 1-(3,4-dihydroxy-5-oxo-2,5-dihydrofuran-2-yl) ethane-1,2-diyl bis((3-(triethoxysilyl)propyl) carbamate)] | – | – | 20
6 | CC(C)(C)NC(=O)OCC(OC(=O)NC(C)(C)C)C1OC(=O)C(O)=C1O (stereo not drawn) [Entry 5, 1-(3,4-dihydroxy-5-oxo-2,5-dihydrofuran-2-yl) ethane-1,2-diyl bis(tert-butylcarbamate)] | – | – | 34
7 | C=C(C)C(=O)OCCNC(=O)OCC(OC(=O)NCCOC(=O)C(=C)C)C1OC(=O)C(O)=C1O (stereo not drawn) [Entry 6, 6-(3,4-dihydroxy-5-oxo-2,5-dihydrofuran-2-yl)-4,9-dioxo-5,8-dioxa-3,10-diazadodecane-1,12-diyl bis(2-methylacrylate)] | – | – | 33
8 | C=Cc1ccc(C(C)(C)NC(=O)OCC(OC(=O)NC(C)(C)c2ccc(C=C)cc2)C2OC(=O)C(O)=C2O)cc1 (stereo not drawn) [Entry 7, 1-(3,4-dihydroxy-5-oxo-2,5-dihydrofuran-2-yl) ethane-1,2-diyl bis((2-(4-vinylphenyl)propan-2-yl) carbamate)] | – | – | 24
9 | C=CC(=O)OCC(C)(COC(=O)C=C)NC(=O)OCC(OC(=O)NC(C)(COC(=O)C=C)COC(=O)C=C)C1OC(=O)C(O)=C1O (stereo not drawn) [Entry 17, 2-((8-((acryloyloxy)methyl)-3-(3,4-dihydroxy-5-oxo-2,5-dihydrofuran-2-yl)-8-methyl-6,11-dioxo-2,5,10-trioxa-7-azatridec-12-en-1-oyl)amino)-2-methylpropane-1,3-diyl diacrylate] | – | – | 6

Other lines, results leading:

Row | Onset time t/min [1] [min] | Onset time t (Δη*/Δt ≥ 1 Pa)/min [2] [min] | Onset time t (Δη*/Δt ≥ 1 Pa)/min (OT) [3] [min] | Structure (SMILES)
10 | – | – | 52 | O=C(NC1CCCCC1)OCC(OC(=O)NC1CCCCC1)C1OC(=O)C(O)=C1O (stereo not drawn) [Entry 8, 1-(3,4-dihydroxy-5-oxo-2,5-dihydrofuran-2-yl) ethane-1,2-diyl bis(cyclohexylcarbamate)]
11 | – | – | 5 | C[Si](C)(C)NC(=O)OCC(OC(=O)N[Si](C)(C)C)C1OC(=O)C(O)=C1O (stereo not drawn) [Entry 9, 1-(3,4-dihydroxy-5-oxo-2,5-dihydrofuran-2-yl) ethane-1,2-diyl bis((trimethylsilyl) carbamate)]
12 | – | – | 6 | CCCCCCCCCCCCCCCCCCNC(=O)OCC(OC(=O)NCCCCCCCCCCCCCCCCCC)C1OC(=O)C(O)=C1O (stereo not drawn) [Entry 10, 1-(3,4-dihydroxy-5-oxo-2,5-dihydrofuran-2-yl) ethane-1,2-diyl bis(octadecylcarbamate)]
13 | – | – | 55 | CC(C)c1ccc(NC(=O)OCC(OC(=O)Nc2ccc(C(C)C)cc2)C2OC(=O)C(O)=C2O)cc1 (stereo not drawn) [Entry 11, 1-(3,4-dihydroxy-5-oxo-2,5-dihydrofuran-2-yl) ethane-1,2-diyl bis((4-isopropylphenyl) carbamate)]
14 | – | – | 33 | Cc1cccc(NC(=O)OCC(OC(=O)Nc2cccc(C)c2)C2OC(=O)C(O)=C2O)c1 (stereo not drawn) [Entry 12, 1-(3,4-dihydroxy-5-oxo-2,5-dihydrofuran-2-yl) ethane-1,2-diyl bis(m-tolylcarbamate)]
15 | – | – | 6 | O=C(NCCc1ccccc1)OCC(OC(=O)NCCc1ccccc1)C1OC(=O)C(O)=C1O (stereo not drawn) [Entry 13, 1-(3,4-dihydroxy-5-oxo-2,5-dihydrofuran-2-yl) ethane-1,2-diyl bis(phenethylcarbamate)]
16 | – | – | 44 | C=CCCCCCCCCCCNC(=O)OCC(OC(=O)NCCCCCCCCCCC=C)C1OC(=O)C(O)=C1O (stereo not drawn) [Entry 14, 1-(3,4-dihydroxy-5-oxo-2,5-dihydrofuran-2-yl) ethane-1,2-diyl bis(dodec-11-en-1-ylcarbamate)]
17 | – | – | 4 | O=C(Nc1cccc2ccccc12)OCC(OC(=O)Nc1cccc2ccccc12)C1OC(=O)C(O)=C1O (stereo not drawn) [Entry 15, 1-(3,4-dihydroxy-5-oxo-2,5-dihydrofuran-2-yl) ethane-1,2-diyl bis(naphthalen-1-ylcarbamate)]
